# Assay results as given in patent US8664265B2, “Stable dosage forms of spiro and dispiro 1,2,4-trioxolane antimalarials” (Ranbaxy Laboratories Limited, priority 2005, dated 2014).
# Columns and labels:
# [1] = Compatibility studies of active compound with excipients, forced degradation, total related substances by HPLC; type: physicochemical
# Method: (§1) The role of excipients and water content was evaluated by conducting compatibility studies of active compound with various excipients, in different proportions and evaluating the extent of degradation by forced degradation at 60° C. over the period of 2 weeks and at 50° C. for 4 weeks. The water content was analyzed using Karl Fischer method and the total related substances (% w/w) were determined by HPLC method.
# [2] = Water content by Karl Fischer method in the compatibility studies; type: physicochemical
# Method: as §1
# [3] = with Aerosol, Drug:Excipient 1:0.1
# [4] = with Croscarmellose sodium, Drug:Excipient 1:0.5
# [5] = with Cross povidone, Drug:Excipient 1:0.5
# [6] = with Dicalcium phosphate, Drug:Excipient 1:2^
# [7] = with Dicalcium phosphate, Drug:Excipient 1:10
# [8] = with Hydroxypropyl methylcellulose 5 cps, Drug:Excipient 1:0.5
# [9] = with Mg. Stearate, Drug:Excipient 1:0.1
# [10] = with Micro crystalline cellulose, Drug:Excipient 1:10
# [11] = with Microcrystalline cellulose, Drug:Excipient 1:2^
# [12] = with Opadry ®, Drug:Excipient 1:0.5
# [13] = with Pearlitol, Drug:Excipient 1:2^
# [14] = with Pearlitol, Drug:Excipient 1:10
# [15] = with Polyethylene glycol 400, Drug:Excipient 1:0.1
# [16] = with Polyvinyl pyrrolidone K 30, Drug:Excipient 1:0.5
# [17] = with Sodium lauryl sodium, Drug:Excipient 1:0.5
# [18] = with Sodium starch glycolate, Drug:Excipient 1:0.5
# [19] = with Starch, Drug:Excipient 1:2^
# [20] = with Starch, Drug:Excipient 1:10
# [21] = with Talc, Drug:Excipient 1:0.1
# [22] = with Titanium dioxide, Drug:Excipient 1:0.5
structure (smiles),measurement,setting,value
"CC(C)(N)CNC(=O)C[C@H]1CC[C@]2(CC1)OOC1(O2)C2CC3CC(C2)CC1C3.O=C(O)/C=C\C(=O)O (stereo partly drawn) [Active compound I, cis-adamantane-2-spiro-3′-8′-[[[(2′-amino-2′-methylpropyl)amino]carbonyl]-methyl]-1′,2′,4′-trioxaspiro[4.5]decane hydrogen maleate]",Compatibility with excipient,[1]; Microcrystalline cellulose,most satisfactory results
same,Compatibility with excipient,"[1]; Starch, when used in higher amounts",incompatible
same,Compatibility with excipient,"[1]; dicalcium phosphate, at 60° C.",increase in related substances
same,Compatibility with excipient,"[1]; lactose, degradation by other mechanisms such as Maillard reaction",incompatible
same,Total Related Substance (% w/w) After 2 weeks/60° C.,[1]; [3],0.86 % w/w
same,Total Related Substance (% w/w) After 4 weeks/50° C.,[1]; [3],0.66 % w/w
same,Total Related Substance (% w/w) Initial,[1]; [3],0.14 % w/w
same,Total Related Substance (% w/w) After 2 weeks/60° C.,[1]; [4],0.35 % w/w
same,Total Related Substance (% w/w) After 4 weeks/50° C.,[1]; [4],0.34 % w/w
same,Total Related Substance (% w/w) Initial,[1]; [4],0.09 % w/w
same,Total Related Substance (% w/w) After 2 weeks/60° C.,[1]; [5],0.68 % w/w
same,Total Related Substance (% w/w) After 4 weeks/50° C.,[1]; [5],0.40 % w/w
same,Total Related Substance (% w/w) Initial,[1]; [5],0.13 % w/w
same,Total Related Substance (% w/w) After 2 weeks/60° C.,[1]; [6],1.32 % w/w
same,Total Related Substance (% w/w) After 4 weeks/50° C.,[1]; [6],0.77 % w/w
same,Total Related Substance (% w/w) Initial,[1]; [6],0.07 % w/w
same,Total Related Substance (% w/w) After 2 weeks/60° C.,[1]; [7],6.07 % w/w
same,Total Related Substance (% w/w) After 4 weeks/50° C.,[1]; [7],0.61 % w/w
same,Total Related Substance (% w/w) Initial,[1]; [7],0.17 % w/w
same,Total Related Substance (% w/w) After 2 weeks/60° C.,[1]; [8],1.05 % w/w
same,Total Related Substance (% w/w) After 4 weeks/50° C.,[1]; [8],0.70 % w/w
same,Total Related Substance (% w/w) Initial,[1]; [8],0.17 % w/w
same,Total Related Substance (% w/w) After 2 weeks/60° C.,[1]; [9],0.86 % w/w
same,Total Related Substance (% w/w) After 4 weeks/50° C.,[1]; [9],0.65 % w/w
same,Total Related Substance (% w/w) Initial,[1]; [9],0.13 % w/w
same,Total Related Substance (% w/w) After 2 weeks/60° C.,[1]; [10],1.02 % w/w
same,Total Related Substance (% w/w) After 4 weeks/50° C.,[1]; [10],0.78 % w/w
same,Total Related Substance (% w/w) Initial,[1]; [10],0.39 % w/w
same,Total Related Substance (% w/w) After 2 weeks/60° C.,[1]; [11],0.74 % w/w
same,Total Related Substance (% w/w) After 4 weeks/50° C.,[1]; [11],0.70 % w/w
same,Total Related Substance (% w/w) Initial,[1]; [11],0.19 % w/w
same,Total Related Substance (% w/w) After 2 weeks/60° C.,[1]; [12],0.96 % w/w
same,Total Related Substance (% w/w) After 4 weeks/50° C.,[1]; [12],1.85 % w/w
same,Total Related Substance (% w/w) Initial,[1]; [12],0.17 % w/w
same,Total Related Substance (% w/w) After 2 weeks/60° C.,[1]; [13],0.77 % w/w
same,Total Related Substance (% w/w) After 4 weeks/50° C.,[1]; [13],0.72 % w/w
same,Total Related Substance (% w/w) Initial,[1]; [13],0.14 % w/w
same,Total Related Substance (% w/w) After 2 weeks/60° C.,[1]; [14],0.70 % w/w
same,Total Related Substance (% w/w) After 4 weeks/50° C.,[1]; [14],0.46 % w/w
same,Total Related Substance (% w/w) Initial,[1]; [14],0.14 % w/w
same,Total Related Substance (% w/w) After 2 weeks/60° C.,[1]; [15],0.68 % w/w
same,Total Related Substance (% w/w) After 4 weeks/50° C.,[1]; [15],0.66 % w/w
same,Total Related Substance (% w/w) Initial,[1]; [15],0.14 % w/w
same,Total Related Substance (% w/w) After 2 weeks/60° C.,[1]; [16],0.79 % w/w
same,Total Related Substance (% w/w) After 4 weeks/50° C.,[1]; [16],0.33 % w/w
same,Total Related Substance (% w/w) Initial,[1]; [16],0.00 % w/w
same,Total Related Substance (% w/w) After 2 weeks/60° C.,[1]; [17],1.59 % w/w
same,Total Related Substance (% w/w) After 4 weeks/50° C.,[1]; [17],0.92 % w/w
same,Total Related Substance (% w/w) Initial,[1]; [17],0.15 % w/w
same,Total Related Substance (% w/w) After 2 weeks/60° C.,[1]; [18],0.89 % w/w
same,Total Related Substance (% w/w) After 4 weeks/50° C.,[1]; [18],0.43 % w/w
same,Total Related Substance (% w/w) Initial,[1]; [18],0.13 % w/w
same,Total Related Substance (% w/w) After 2 weeks/60° C.,[1]; [19],0.74 % w/w
same,Total Related Substance (% w/w) After 4 weeks/50° C.,[1]; [19],0.60 % w/w
same,Total Related Substance (% w/w) Initial,[1]; [19],0.08 % w/w
same,Total Related Substance (% w/w) After 2 weeks/60° C.,[1]; [20],4.13 % w/w
same,Total Related Substance (% w/w) After 4 weeks/50° C.,[1]; [20],0.60 % w/w
same,Total Related Substance (% w/w) Initial,[1]; [20],0.07 % w/w
same,Total Related Substance (% w/w) After 2 weeks/60° C.,[1]; [21],0.90 % w/w
same,Total Related Substance (% w/w) After 4 weeks/50° C.,[1]; [21],0.63 % w/w
same,Total Related Substance (% w/w) Initial,[1]; [21],0.15 % w/w
same,Total Related Substance (% w/w) After 2 weeks/60° C.,[1]; [22],0.93 % w/w
same,Total Related Substance (% w/w) After 4 weeks/50° C.,[1]; [22],0.57 % w/w
same,Total Related Substance (% w/w) Initial,[1]; [22],0.16 % w/w
same,Water (% w/w),[2]; [3],0.27 % w/w
same,Water (% w/w),[2]; [4],0.59 % w/w
same,Water (% w/w),[2]; [5],3.49 % w/w
same,Water (% w/w),[2]; [6],2.01 % w/w
same,Water (% w/w),[2]; [7],2.14 % w/w
same,Water (% w/w),[2]; [8],1.22 % w/w
same,Water (% w/w),[2]; [9],0.46 % w/w
same,Water (% w/w),[2]; [10],4.94 % w/w
same,Water (% w/w),[2]; [11],3.69 % w/w
same,Water (% w/w),[2]; [12],0.46 % w/w
same,Water (% w/w),[2]; [13],0.02 % w/w
same,Water (% w/w),[2]; [14],0.52 % w/w
same,Water (% w/w),[2]; [15],0.88 % w/w
same,Water (% w/w),[2]; [16],3.02 % w/w
same,Water (% w/w),[2]; [17],0.79 % w/w
same,Water (% w/w),[2]; [18],1.43 % w/w
same,Water (% w/w),[2]; [19],4.73 % w/w
same,Water (% w/w),[2]; [21],0.12 % w/w
same,Water (% w/w),[2]; [22],0.18 % w/w
